Data published in ChEMBL document CHEMBL5303304, “EUbOPEN Chemogenomics Library - IncuCyte” (2023).

Key:
Format in all cases: toxicity, cell-based
HEK-293T = test: Incucyte cell viability with HEK293T; settings: human, 10 µM, compound concentration 10 uM
Fibroblast = test: Incucyte cell viability with human fibroblast; settings: 10 µM, compound concentration 10 uM
U2OS = test: Incucyte cell viability with U2OS; settings: human, 10 µM, compound concentration 10 uM
Note: unitless GR value; below 1 slowed growth and below 0 cell loss.

| SMILES | Growth Rate (HEK-293T; 6 h, replicate number 1) | Growth Rate (HEK-293T; 12 h, replicate number 1) | Growth Rate (HEK-293T; 18 h, replicate number 1) | Growth Rate (HEK-293T; 18 h, replicate number 2) | Growth Rate (HEK-293T; 24 h, replicate number 1) | Growth Rate (Fibroblast; 0 h, replicate number 2) | Growth Rate (Fibroblast; 6 h, replicate number 1) | Growth Rate (Fibroblast; 6 h, replicate number 2) | Growth Rate (Fibroblast; 12 h, replicate number 2) | Growth Rate (Fibroblast; 18 h, replicate number 2) | Growth Rate (Fibroblast; 24 h, replicate number 2) | Growth Rate (U2OS; 6 h, replicate number 1) | Growth Rate (U2OS; 18 h, replicate number 2) | Growth Rate (U2OS; 24 h, replicate number 1) | Growth Rate (HEK-293T; 6 h, replicate number 2) | Growth Rate (HEK-293T; 12 h, replicate number 2) | Growth Rate (HEK-293T; 24 h, replicate number 2) | Growth Rate (U2OS; 12 h, replicate number 1) | Growth Rate (U2OS; 18 h, replicate number 1) | Growth Rate (U2OS; 24 h, replicate number 2) | further results |
| --- | --- | --- | --- | --- | --- | --- | --- | --- | --- | --- | --- | --- | --- | --- | --- | --- | --- | --- | --- | --- | --- |
| C=C(C)[C@H]1CN[C@H](C(=O)O)[C@H]1CC(=O)O [KAINIC ACID] | 0.6 | 0.52 | 0.62 | 0.99 | 0.8 | 0.92 | 0.61 | 0.16 | 0.83 | 0.79 | 0.8 | 0.42 | 0.9 | 0.98 |  |  |  |  |  |  | Growth Rate (Fibroblast; 0 h, replicate number 1): -0.12; Growth Rate (Fibroblast; 18 h, replicate number 1): 0.63; Growth Rate (Fibroblast; 24 h, replicate number 1): 0.76; Growth Rate (U2OS; 0 h, replicate number 2): -0.65 |
| CC(=O)N1CCN(c2ccc(OCC3COC(Cn4ccnc4)(c4ccc(Cl)cc4Cl)O3)cc2)CC1 (centres undefined) [KETOCONAZOLE] | -0.34 | 0.05 | 0.34 | 0.32 | 0.6 | -0.79 | 0.47 |  |  | 0.96 | 0.89 | 0.7 | 0.99 |  | -0.16 | 0.03 | 0.38 |  |  |  | Growth Rate (Fibroblast; 12 h, replicate number 1): -1; Growth Rate (U2OS; 0 h, replicate number 2): -0.98; Growth Rate (U2OS; 6 h, replicate number 2): 0.94; Growth Rate (U2OS; 12 h, replicate number 2): 0.63 |
| Cc1c[nH]c(-c2cnc(NCCNc3ccc(C#N)cn3)nc2-c2ccc(Cl)cc2Cl)n1 [LADUVIGLUSIB] | 0.35 | 0.49 | 0.58 | 0.7 | 0.71 |  | 0.56 | 0.81 | -0.19 | -0.3 | -0.28 | 0.47 | 0.93 | 0.56 | 0.14 | 0.43 | 0.75 | 0.48 | 0.83 | 0.99 | Growth Rate (HEK-293T; 0 h, replicate number 1): 0.82; Growth Rate (HEK-293T; 0 h, replicate number 2): 0.92; Growth Rate (Fibroblast; 12 h, replicate number 1): -0.47; Growth Rate (Fibroblast; 18 h, replicate number 1): -0.4; Growth Rate (Fibroblast; 24 h, replicate number 1): -0.33; Growth Rate (U2OS; 0 h, replicate number 1): 0.54; Growth Rate (U2OS; 12 h, replicate number 2): 0.87 |
| O=C(O)CCCc1cc2cc(Cl)ccc2n1S(=O)(=O)c1ccc2ncsc2c1 [LANIFIBRANOR] | 0.78 |  |  | 0.59 |  | 0.65 | 0.58 | 0.28 | 0.76 |  |  |  |  |  | 0.49 | 0.73 | 0.63 | 0.94 |  |  | Growth Rate (HEK-293T; 0 h, replicate number 1): 0.87; Growth Rate (HEK-293T; 0 h, replicate number 2): -0.8 |
| CS(=O)(=O)CCNCc1ccc(-c2ccc3ncnc(Nc4ccc(OCc5cccc(F)c5)c(Cl)c4)c3c2)o1 [LAPATINIB] |  |  |  | 0.95 |  |  | -0.42 | 0.69 | 0.65 | 0.7 |  | 0.66 | 0.99 | 0.9 | 0.95 | 0.94 | 0.87 | 0.78 | 0.86 | 0.98 | Growth Rate (HEK-293T; 0 h, replicate number 1): 0.86; Growth Rate (Fibroblast; 0 h, replicate number 1): 0.88; Growth Rate (U2OS; 0 h, replicate number 1): 0.96; Growth Rate (U2OS; 6 h, replicate number 2): 0.93; Growth Rate (U2OS; 12 h, replicate number 2): 0.92 |
| C=CC(=O)Nc1cc(Nc2nccc(-n3cc(CN(C)C)c(-c4ccccc4)n3)n2)c(OC)cc1N1CCOCC1 [LAZERTINIB] | 0.45 |  |  |  |  |  | 0.27 | -0.96 | 0.67 |  | 0.86 | -0.48 | 0.96 | 0.78 |  |  |  | 0.19 | 0.4 | 0.91 | Growth Rate (HEK-293T; 0 h, replicate number 2): 0.8; Growth Rate (Fibroblast; 12 h, replicate number 1): -1; Growth Rate (U2OS; 0 h, replicate number 2): -0.99; Growth Rate (U2OS; 6 h, replicate number 2): 0.77; Growth Rate (U2OS; 12 h, replicate number 2): 0.92 |
| CN[C@@H](C)C(=O)N[C@H](C(=O)N1CCC[C@H]1c1nc(C(=O)c2ccc(F)cc2)cs1)C1CCCCC1 [LCL-161] | 0.22 | 0.4 | 0.53 |  | 0.84 |  |  | 0.19 |  | 0.88 | 0.85 | 0.45 |  |  | 0.84 | 0.95 |  | 0.96 | 0.91 |  | Growth Rate (HEK-293T; 0 h, replicate number 2): -0.96; Growth Rate (U2OS; 0 h, replicate number 1): -0.08 |
| CN1C(=O)c2c(nn(Cc3ccc(-c4cccc(F)n4)cc3)c2Nc2ccccc2)N2C1=N[C@@H]1CCC[C@@H]12.O=P(O)(O)O [LENRISPODUN PHOSPHATE] |  |  |  | 0.79 |  |  |  |  | 0.65 | 0.94 |  | 0.84 |  | 0.68 |  | 0.71 | 0.83 | 0.5 | 0.67 |  | Growth Rate (HEK-293T; 0 h, replicate number 1): 0.85; Growth Rate (HEK-293T; 0 h, replicate number 2): 0.18; Growth Rate (Fibroblast; 0 h, replicate number 1): -1; Growth Rate (U2OS; 0 h, replicate number 1): 0.51 |
| C[C@@H]1C[C@H](N)C[C@H](c2ccncc2NC(=O)c2ccc(F)c(-c3c(F)cccc3F)n2)C1 [LGH-447] | -0.02 | 0.2 | 0.27 | 0.54 | 0.36 | 0.09 |  | 0.93 | 0.9 | 0.58 | 0.44 | -0.22 |  | 0.98 | 0.11 | 0.54 | 0.57 | 0.59 | 0.82 | 0.96 | Growth Rate (Fibroblast; 12 h, replicate number 1): 0.96; Growth Rate (Fibroblast; 18 h, replicate number 1): 0.87; Growth Rate (Fibroblast; 24 h, replicate number 1): 0.67 |
| C[C@H](CCC(=O)O)[C@H]1CC[C@H]2[C@@H]3CC[C@@H]4C[C@H](O)CC[C@]4(C)[C@H]3CC[C@]12C [LITHOCHOLIC ACID] |  |  |  | 0.77 |  | 0.27 |  |  | 0.76 | 0.87 | 0.89 | 0.93 |  | 0.83 | 0.73 | 0.67 |  | 0.68 | 0.74 |  | Growth Rate (HEK-293T; 0 h, replicate number 1): 0.14; Growth Rate (U2OS; 0 h, replicate number 1): -0.56 |
| CN1[C@@H](CC(=O)c2ccccc2)CCC[C@H]1C[C@H](O)c1ccccc1.Cl [LOBELINE HYDROCHLORIDE] | 0.43 | 0.62 |  |  |  | -0.71 | 0.48 | 0.28 | 0.64 |  | 0.83 | 0.83 | 1 |  | 0.24 |  |  | 0.92 |  | 0.87 | Growth Rate (Fibroblast; 18 h, replicate number 1): 0.91; Growth Rate (Fibroblast; 24 h, replicate number 1): 0.58; Growth Rate (U2OS; 0 h, replicate number 1): 0.28; Growth Rate (U2OS; 0 h, replicate number 2): -0.67 |
| CC(C)CC(=O)Nc1cncc(-c2ccc3[nH]nc(-c4nc5c(-c6cccc(F)c6)cncc5[nH]4)c3c2)c1 [LORECIVIVINT] | -0.99 | -0.89 | -0.67 | -0.58 | -0.41 | -0.25 | -1 | -0.98 | -0.68 | -0.37 | -0.13 | -0.98 | -0.47 | -0.44 | -0.98 | -0.78 | -0.44 | -0.71 | -0.52 | -0.42 | Growth Rate (Fibroblast; 0 h, replicate number 1): -0.18; Growth Rate (U2OS; 0 h, replicate number 2): -0.42; Growth Rate (U2OS; 6 h, replicate number 2): -0.82; Growth Rate (U2OS; 12 h, replicate number 2): -0.62 |
| Fc1ccc(-c2c3cccc(C(F)(F)F)c3nn2Cc2ccc(F)cc2Cl)cc1 [LXR-623] | 0.77 | 0.75 | 0.77 | 0.76 | 0.91 |  | -0.18 | 0.35 | 0.12 | -0.04 | 0.03 |  | 0.94 |  | 0.3 | 0.57 | 0.73 |  |  | 0.9 | Growth Rate (HEK-293T; 0 h, replicate number 1): 0.13; Growth Rate (HEK-293T; 0 h, replicate number 2): -0.86; Growth Rate (Fibroblast; 12 h, replicate number 1): -0.03; Growth Rate (Fibroblast; 18 h, replicate number 1): -0.12; Growth Rate (Fibroblast; 24 h, replicate number 1): -0.06; Growth Rate (U2OS; 0 h, replicate number 2): 0.79; Growth Rate (U2OS; 6 h, replicate number 2): 0.69; Growth Rate (U2OS; 12 h, replicate number 2): 0.95 |
| CC(C)(C)C(=O)NCc1ccc(Cl)c(C(=O)Nc2ncc[nH]2)c1 [LY-3031207] |  |  |  |  |  | 0.1 | 0.85 | -0.3 | 0.86 |  |  |  | 0.97 |  |  |  |  |  |  | 0.94 | Growth Rate (HEK-293T; 0 h, replicate number 1): 0.13; Growth Rate (HEK-293T; 0 h, replicate number 2): -0.13; Growth Rate (Fibroblast; 24 h, replicate number 1): 0.89; Growth Rate (U2OS; 0 h, replicate number 1): 0.65; Growth Rate (U2OS; 12 h, replicate number 2): 0.95 |
